Laboratory results published in publication PMC9267128, “New 2-[(4-Amino-6-N-substituted-1,3,5-triazin-2-yl)methylthio]-N-(imidazolidin-2-ylidene)-4-chloro-5-methylbenzenesulfonamide Derivatives, Design, Synthesis and Anticancer Evaluation” (International Journal of Molecular Sciences, 2022).

What was measured:
HeLa (cervical cancer) = assay: MTT cell viability assay, HeLa; format: cell-based, human; conditions: Homo sapiens, HeLa; MTT assay, 72 h of incubation
Procedure, shortened: (§1)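 HCT-116 and HeLa cells in DMEM/10% FBS exposed 72 h to compounds over 1–100 µM. Viability by MTT (0.5 mg/mL, 2 h, 37 °C), formazan dissolved in DMSO and read at 550 nm; mean ± SD of at least three independent experiments.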

HCT-116 (colon cancer) = assay: MTT cell viability assay, HCT-116; format: cell-based, human; conditions: Homo sapiens, HCT-116, 72 h, MTT assay, 72 h of incubation
Procedure, shortened: as §1

[1] = system: HaCaT (human keratinocyte cell line); assay: MTT cell viability assay, non-cancerous HaCaT; format: cell-based; conditions: Homo sapiens, HaCaT, 72 h, 72 h of incubation, non-cancerous keratinocytes
Procedure, shortened: (§2)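 Cells in DMEM with 10% FBS, 3 × 10^3 per well, exposed to compounds at 1–100 µM for 72 h at 37 °C. MTT at 0.5 mg/mL for 2 h, formazan dissolved in DMSO and read at 550 nm. Mean ± SD of at least three independent experiments, each in triplicate.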

MCF-7 (breast cancer) = assay: MTT cell viability assay, MCF-7; format: cell-based, human; conditions: Homo sapiens, MCF7, 72 h, MTT assay, 72 h of incubation
Procedure, shortened: as §2

Row | Compound | IC50 (HeLa (cervical cancer)) | IC50 (HCT-116 (colon cancer)) | IC50 (MCF-7 (breast cancer)) | IC50 [1]
1 | Cc1cc(S(=O)(=O)N=C2NCCN2Cc2ccc(F)cc2)c(SCc2nc(N)nc(Nc3ccc(C(F)(F)F)cc3)n2)cc1Cl [Compound 87] | 15 ± 1 µM | 10 ± 0.4 µM | 7 ± 0.3 µM | 34 ± 1 µM
2 | Cc1cc(S(=O)(=O)N=C2NCCN2Cc2ccc(C(F)(F)F)cc2)c(SCc2nc(N)nc(N3CCN(C)CC3)n2)cc1Cl [Compound 130] | 17 ± 0.5 µM | 10.5 ± 0.4 µM | 8 ± 0.3 µM | 36 ± 1 µM
3 | Cc1cc(S(=O)(=O)N=C2NCCN2Cc2ccccc2)c(SCc2nc(N)nc(N3CCN(c4ccc(F)cc4)CC3)n2)cc1Cl [Compound 58] | 14 ± 2 µM | 11 ± 0.3 µM | 17 ± 1 µM | 29 ± 1 µM
4 | Cc1cc(S(=O)(=O)N=C2NCCCN2Cc2ccc(C(F)(F)F)cc2)c(SCc2nc(N)nc(N3CCN(c4ccccc4)CC3)n2)cc1Cl [Compound 159] | 15.5 ± 0.5 µM | 9 ± 0.5 µM | 10 ± 0.3 µM | 29 ± 1 µM
5 | Cc1cc(S(=O)(=O)N=C2NCCN2Cc2cc(C(F)(F)F)cc(C(F)(F)F)c2)c(SCc2nc(N)nc(N3CCc4ccccc43)n2)cc1Cl [Compound 144] | 13 ± 0.2 µM | 8 ± 0.5 µM | 8 ± 0.2 µM | 27 ± 1 µM
6 | CC1=NN(c2nc(N)nc(CSc3cc(Cl)c(C)cc3S(=O)(=O)N=C3NCCN3Cc3ccccc3)n2)C(C)(C)C1 [Compound 47] | 34 ± 0.3 µM | 19 ± 0.2 µM | 20 ± 0.4 µM | 45 ± 2 µM
7 | Cc1cc(S(=O)(=O)N=C2NCCN2Cc2ccc(C(F)(F)F)cc2)c(SCc2nc(N)nc(N3CCN(C(c4ccccc4)c4ccccc4)CC3)n2)cc1Cl [Compound 141] | 45 ± 2 µM | 7.5 ± 0.2 µM | 9.5 ± 0.5 µM | 180 ± 9 µM
8 | Cc1cc(S(=O)(=O)N=C2NCCN2Cc2cccc(C(F)(F)F)c2)c(SCc2nc(N)nc(N3CCCc4ccccc43)n2)cc1Cl [Compound 112] | 15.5 ± 1 µM | 15 ± 0.3 µM | 17 ± 1 µM | 29 ± 1 µM
9 | Cc1cc(S(=O)(=O)N=C2NCCN2Cc2ccc(Br)cc2)c(SCc2nc(N)nc(N3CCCc4ccccc43)n2)cc1Cl [Compound 103] | 16 ± 0.5 µM | 7 ± 0.1 µM | 6.5 ± 0.3 µM | 28 ± 1 µM
10 | Cc1cc(S(=O)(=O)N=C2NCCN2)c(SCc2nc(N)nc(N3CCN(c4cccc(C(F)(F)F)c4)CC3)n2)cc1Cl [Compound 35] | 16 ± 1 µM | 14 ± 0.7 µM | 16 ± 1 µM | 32 ± 2 µM
11 | Cc1cc(S(=O)(=O)N=C2NCCN2)c(SCc2nc(N)nc(N3CC=C(c4ccc(F)cc4)CC3)n2)cc1Cl [Compound 44] | 14 ± 0.5 µM | 14 ± 0.5 µM | 16 ± 0.5 µM | 28 ± 1 µM
12 | Cc1cc(S(=O)(=O)N=C2NCCN2Cc2ccc(C(F)(F)F)cc2)c(SCc2nc(N)nc(NCc3ccccc3)n2)cc1Cl [Compound 127] | 18 ± 1 µM | 17 ± 0.5 µM | 17.5 ± 1 µM | 39 ± 2 µM
13 | Cc1cc(S(=O)(=O)N=C2NCCN2Cc2ccc(Br)cc2)c(SCc2nc(N)nc(N3CCN(c4ccccc4)CC3)n2)cc1Cl [Compound 106] | 82 ± 4 µM | 8.5 ± 0.1 µM | 6.5 ± 0.4 µM | 110 ± 4 µM
14 | Cc1cc(S(=O)(=O)N=C2NCCN2Cc2ccc(C(F)(F)F)cc2)c(SCc2nc(N)nc(N3CCN(c4ccc(F)cc4)CC3)n2)cc1Cl [Compound 132] | 16 ± 1 µM | 8 ± 0.2 µM | 17 ± 0.4 µM | 26 ± 1 µM
15 | Cc1cc(S(=O)(=O)N=C2NCCN2Cc2ccc(F)cc2)c(SCc2nc(N)nc(N3CCCc4ccccc43)n2)cc1Cl [Compound 84] | 15 ± 0.6 µM | 9 ± 0.5 µM | 7 ± 0.1 µM | 27 ± 1 µM
16 | COc1ccc(N2CCN(c3nc(N)nc(CSc4cc(Cl)c(C)cc4S(=O)(=O)N=C4NCCN4Cc4cccc(C(F)(F)F)c4)n3)CC2)cc1 [Compound 116] | 17 ± 1 µM | 6 ± 0.2 µM | 8.5 ± 0.3 µM | 31 ± 2 µM
17 | Cc1cc(S(=O)(=O)N=C2NCCN2)c(SCc2nc(N)nc(N3CCN(c4ccc(F)c(Cl)c4)CC3)n2)cc1Cl [Compound 39] | 18 ± 1 µM | 15 ± 1 µM | 17 ± 1 µM | 37 ± 2 µM
18 | Cc1cc(S(=O)(=O)N=C2NCCN2Cc2ccc(C(F)(F)F)cc2)c(SCc2nc(N)nc(Nc3cccc(Cl)c3)n2)cc1Cl [Compound 124] | 15 ± 0.2 µM | 9.5 ± 0.1 µM | 10 ± 0.5 µM | 31 ± 1 µM
19 | COc1ccccc1N1CCN(c2nc(N)nc(CSc3cc(Cl)c(C)cc3S(=O)(=O)N=C3NCCN3)n2)CC1 [Compound 41] | 39 ± 2 µM | 21 ± 1 µM | 46 ± 1 µM | 51 ± 3 µM
20 | Cc1cc(S(=O)(=O)N=C2NCCN2Cc2ccc(C(F)(F)F)cc2)c(SCc2nc(N)nc(Nc3ccccc3)n2)cc1Cl [Compound 122] | 19 ± 0.5 µM | 14 ± 0.4 µM | 20 ± 1 µM | 35 ± 1 µM

More lines, main results first:

Row | IC50 (HeLa (cervical cancer)) | IC50 (HCT-116 (colon cancer)) | IC50 (MCF-7 (breast cancer)) | Compound | IC50 [1]
21 | 13 ± 0.5 µM | 7 ± 0.2 µM | 15 ± 0.5 µM | Cc1cc(S(=O)(=O)N=C2NCCN2Cc2ccc(C(F)(F)F)cc2)c(SCc2nc(N)nc(N3CCN(c4ccccc4)CC3)n2)cc1Cl [Compound 131] | 25 ± 1 µM
22 | 7 ± 0.2 µM | 5 ± 0.2 µM | 6.5 ± 0.3 µM | Cc1cc(S(=O)(=O)N=C2NCCN2Cc2ccc(C(F)(F)F)cc2)c(SCc2nc(N)nc(N3CCN(c4cccc(C(F)(F)F)c4)CC3)n2)cc1Cl [Compound 135] | 19 ± 1 µM
23 | 5.5 ± 0.2 µM | 4.8 ± 0.1 µM | 7.5 ± 0.4 µM | Cc1cc(S(=O)(=O)N=C2NCCN2Cc2cc(C(F)(F)F)cc(C(F)(F)F)c2)c(SCc2nc(N)nc(N3CCN(Cc4ccccc4)CC3)n2)cc1Cl [Compound 156] | 17 ± 1 µM
24 | 9 ± 0.5 µM | 6 ± 0.3 µM | 8 ± 0.2 µM | Cc1cc(S(=O)(=O)N=C2NCCN2Cc2cc(C(F)(F)F)cc(C(F)(F)F)c2)c(SCc2nc(N)nc(N3CCN(c4cccc(C(F)(F)F)c4)CC3)n2)cc1Cl [Compound 153] | 19 ± 0.5 µM
25 | 8 ± 0.5 µM | 8 ± 0.2 µM | 7 ± 0.1 µM | COc1ccc(N2CCN(c3nc(N)nc(CSc4cc(Cl)c(C)cc4S(=O)(=O)N=C4NCCN4Cc4ccc(F)cc4)n3)CC2)cc1 [Compound 100] | 18 ± 1 µM
26 | 9 ± 0.3 µM | 6 ± 0.2 µM | 7 ± 0.4 µM | Cc1cc(S(=O)(=O)N=C2NCCN2Cc2ccc(F)cc2)c(SCc2nc(N)nc(N3CCN(c4cccc(Cl)c4)CC3)n2)cc1Cl [Compound 97] | 24 ± 1 µM
27 | 12 ± 1 µM | 5 ± 0.1 µM | 6.5 ± 0.2 µM | Cc1cc(S(=O)(=O)N=C2NCCN2Cc2cc(C(F)(F)F)cc(C(F)(F)F)c2)c(SCc2nc(N)nc(N3CCN(c4ccc(Cl)cc4)CC3)n2)cc1Cl [Compound 154] | 26 ± 1 µM
28 | 8 ± 0.5 µM | 7 ± 0.3 µM | 8 ± 0.4 µM | Cc1cc(S(=O)(=O)N=C2NCCN2Cc2ccc(F)cc2)c(SCc2nc(N)nc(N3CCN(c4ccccc4)CC3)n2)cc1Cl [Compound 92] | 18 ± 1 µM
29 | 12 ± 0.5 µM | 9 ± 0.5 µM | 11 ± 0.1 µM | Cc1cc(S(=O)(=O)N=C2NCCN2Cc2ccc(C(F)(F)F)cc2)c(SCc2nc(N)nc(N3CCc4ccccc43)n2)cc1Cl [Compound 120] | 24 ± 1 µM
30 | 8.5 ± 0.3 µM | 10.5 ± 0.4 µM | 12 ± 0.5 µM | Cc1cc(S(=O)(=O)N=C2NCCCN2Cc2ccc(C(F)(F)F)cc2)c(SCc2nc(N)nc(N3CCN(c4cccc(C(F)(F)F)c4)CC3)n2)cc1Cl [Compound 160] | 23 ± 1 µM
